Legend:
[1] = system: cancer metastasis to the lung; conditions: Iloprost administered to mice; cited from earlier work
[2] = system: urethane-induced lung tumors; assay: Urethane lung tumorigenesis protocol, oral Iloprost in diet; assay type: in vivo, FVB/N mice
Method: (§1) Transgenic mice (Tg^+) and wildtype littermates (Tg^−), 8 to 12 weeks of age, were subjected to two distinct lung carcinogenesis protocols. In the first model, urethane (ethyl carbamate), a carcinogen which selectively induces pulmonary adenomas through genetic mutations in the oncogene ras, was administered in a single intraperitoneal (ip) dose. […] BHT is a tumor promoter and induces reversible pulmonary damage characterized by alveolar type I cell necrosis, selective pulmonary inflammation, and hyperplasia of alveolar type II cells. Controls for both models consisted of mice injected with vehicle alone. The oral administration of Iloprost was investigated and found to have a similar beneficial effects to PGIS overexpression. FVB/N mice were fed a diet of low (0.1%) or high (3.0%) dose Iloprost continuously throughout the experiment and then were subjected to tumorigenesis protocols with either urethane or MCA/BHT. At the conclusion of the experiments, animals were euthanized and tumors enumerated.

[3] = system: MCA/BHT-induced lung tumors; assay: MCA/BHT lung tumorigenesis protocol, oral Iloprost in diet; assay type: in vivo, FVB/N mice
Method: as §1

[4] = 3.0% Iloprost diet compared with 0.1%
[5] = diet of low (0.1%) or high (3.0%) dose Iloprost continuously

For `CC#CCC(C)[C@H](O)/C=C/[C@@H]1[C@H]2C/C(=C/CCCC(=O)O)C[C@H]2C[C@H]1O` (some centres unmarked) [Iloprost], the “prevention of cancer metastasis to the lung” value [1] is given as “did not prevent cancer metastasis to the lung”, the “reduction in multiplicity, high versus low dose” value [2, 4] is given as “greater reduction in multiplicity” and the tumor multiplicity [2, 5] is given as “significant reduction in tumor multiplicity”. For the same compound, the “reduction in multiplicity, high versus low dose” value [3, 4] was “greater reduction in multiplicity” and the tumor multiplicity [3, 5] was “significant reduction in tumor multiplicity”.

— US8623917B2, “Uses of prostacyclin analogs” (The Regents of the University of Colorado, a body corporate, priority 2005, dated 2014)
